Patent publication US10150760B2, “Compounds for use in preparing heterocyclic triazole agonists of the APJ receptor” (AMGEN INC., priority 2016, dated 2018)

Target: human APJ receptor (Homo sapiens (Human), UniProt P35414)
Assay: [35S]GTPγS binding assay on membranes from CHO cells stably expressing human APJ receptor
Format: biochemical
Details: read-out: Activity hAPJ SPA EC50 IP
Summary of the method: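 Agonist-driven [35S]GTPγS (0.2 nM) binding was measured over 90 min at room temperature on human APJ-expressing CHO membranes with bead capture, in buffer containing 3 μM GDP, 200 mM NaCl and 5 mM MgCl2 (pH 7.5). Excess unlabelled GTPγS (100 μM) gave nonspecific signal; EC50 from non-linear fits.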

Sequence of human APJ receptor (P35414 whole entry): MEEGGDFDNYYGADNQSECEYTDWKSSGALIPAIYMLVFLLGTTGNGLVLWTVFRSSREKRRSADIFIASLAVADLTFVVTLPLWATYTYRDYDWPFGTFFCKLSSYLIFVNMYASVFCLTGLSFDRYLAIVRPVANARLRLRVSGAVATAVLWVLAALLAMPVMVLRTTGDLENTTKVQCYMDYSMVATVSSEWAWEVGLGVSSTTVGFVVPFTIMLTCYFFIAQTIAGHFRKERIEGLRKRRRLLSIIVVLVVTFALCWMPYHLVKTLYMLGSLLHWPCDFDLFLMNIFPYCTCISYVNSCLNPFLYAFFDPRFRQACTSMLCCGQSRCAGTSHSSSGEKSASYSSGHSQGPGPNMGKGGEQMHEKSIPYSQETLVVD

Row | Compound | EC50
1 | CO[C@H](c1ncc(Cl)cn1)[C@H](C)S(=O)(=O)Nc1nnc([C@H]2CCC(C)(C)O2)n1C(C)C (single isomer, unassigned) [Example 300.0, (1R,2S)-1-(5-chloropyrimidin-2-yl)-N-(5-((R)-5,5-dimethyltetrahydrofuran-2-yl)-4-isopropyl-4H-1,2,4-triazol-3-yl)-1-methoxypropane-2-sulfonamide or (1R,2S)-1-(5-chloropyrimidin-2-yl)-N-(5-((S)-5,5-dimethyltetrahydrofuran-2-yl)-4-isopropyl-4H-1,2,4-triazol-3-yl)-1-methoxypropane-2-sulfonamide] | 1400 nM
2 | CO[C@H](c1ncc(Cl)cn1)[C@H](C)S(=O)(=O)Nc1nnc([C@H]2COCCO2)n1C(C)C (single isomer, unassigned) [Example 301.0, (1R,2S)-N-(5-((S)-1,4-dioxan-2-yl)-4-isopropyl-4H-1,2,4-triazol-3-yl)-1-(5-chloropyrimidin-2-yl)-1-methoxypropane-2-sulfonamide or (1R,2S)-N-(5-((R)-1,4-dioxan-2-yl)-4-isopropyl-4H-1,2,4-triazol-3-yl)-1-(5-chloropyrimidin-2-yl)-1-methoxypropane-2-sulfonamide] | 2900 nM
3 | CO[C@H](c1ncc(Cl)cn1)[C@H](C)S(=O)(=O)Nc1nnc([C@H]2COCCO2)n1C(C)C (single isomer, unassigned) [Example 302.0, (1R,2S)-N-(5-((S)-1,4-dioxan-2-yl)-4-isopropyl-4H-1,2,4-triazol-3-yl)-1-(5-chloropyrimidin-2-yl)-1-methoxypropane-2-sulfonamide or (1R,2S)-N-(5-((R)-1,4-dioxan-2-yl)-4-isopropyl-4H-1,2,4-triazol-3-yl)-1-(5-chloropyrimidin-2-yl)-1-methoxypropane-2-sulfonamide] | 710 nM
4 | COCCn1c(NS(=O)(=O)[C@@H](C)[C@H](OC)c2ncc(Cl)cn2)nnc1[C@H]1CCOC1 (single isomer, unassigned) [Example 309.0, (1R,2S)-1-(5-chloropyrimidin-2-yl)-1-methoxy-N-(4-(2-methoxyethyl)-5-((R)-tetrahydrofuran-3-yl)-4H-1,2,4-triazol-3-yl)propane-2-sulfonamide or (1R,2S)-1-(5-chloropyrimidin-2-yl)-1-methoxy-N-(4-(2-methoxyethyl)-5-((S)-tetrahydrofuran-3-yl)-4H-1,2,4-triazol-3-yl)propane-2-sulfonamide] | 2600 nM
5 | COCCn1c(NS(=O)(=O)[C@@H](C)[C@H](OC)c2ncc(Cl)cn2)nnc1[C@H]1CCOC1 (single isomer, unassigned) [Example 310.0, (1R,2S)-1-(5-chloropyrimidin-2-yl)-1-methoxy-N-(4-(2-methoxyethyl)-5-((R)-tetrahydrofuran-3-yl)-4H-1,2,4-triazol-3-yl)propane-2-sulfonamide or (1R,2S)-1-(5-chloropyrimidin-2-yl)-1-methoxy-N-(4-(2-methoxyethyl)-5-((S)-tetrahydrofuran-3-yl)-4H-1,2,4-triazol-3-yl)propane-2-sulfonamide] | 540 nM
6 | COCCn1c(NS(=O)(=O)[C@@H](C)[C@H](OC)c2ncc(Cl)cn2)nnc1[C@@H]1COCCO1 (single isomer, unassigned) [Example 311.0, (1R,2S)-N-(5-((R)-1,4-dioxan-2-yl)-4-(2-methoxyethyl)-4H-1,2,4-triazol-3-yl)-1-(5-chloropyrimidin-2-yl)-1-methoxypropane-2-sulfonamide or (1R,2S)-N-(5-((S)-1,4-dioxan-2-yl)-4-(2-methoxyethyl)-4H-1,2,4-triazol-3-yl)-1-(5-chloropyrimidin-2-yl)-1-methoxypropane-2-sulfonamide] | 1700 nM
7 | COCCn1c(NS(=O)(=O)[C@@H](C)[C@H](OC)c2ncc(Cl)cn2)nnc1[C@@H]1COCCO1 (single isomer, unassigned) [Example 312.0, (1R,2S)-N-(5-((R)-1,4-dioxan-2-yl)-4-(2-methoxyethyl)-4H-1,2,4-triazol-3-yl)-1-(5-chloropyrimidin-2-yl)-1-methoxypropane-2-sulfonamide or (1R,2S)-N-(5-((S)-1,4-dioxan-2-yl)-4-(2-methoxyethyl)-4H-1,2,4-triazol-3-yl)-1-(5-chloropyrimidin-2-yl)-1-methoxypropane-2-sulfonamide] | 1900 nM
8 | COc1cccc(OC)c1-n1c(NS(=O)(=O)[C@@H](C)[C@H](C)c2ncc(F)cn2)nnc1[C@H]1CCC(C)(C)O1 (single isomer, unassigned) [Example 333.0, (2S,3R)-N-(4-(2,6-dimethoxyphenyl)-5-((R)-5,5-dimethyltetrahydrofuran-2-yl)-4H-1,2,4-triazol-3-yl)-3-(5-fluoropyrimidin-2-yl)butane-2-sulfonamide or (2S,3R)-N-(4-(2,6-dimethoxyphenyl)-5-((S)-5,5-dimethyltetrahydrofuran-2-yl)-4H-1,2,4-triazol-3-yl)-3-(5-fluoropyrimidin-2-yl)butane-2-sulfonamide] | 190 nM
9 | COc1cccc(OC)c1-n1c(NS(=O)(=O)[C@@H](C)[C@H](C)c2ncc(F)cn2)nnc1[C@H]1CCC(C)(C)O1 (single isomer, unassigned) [Example 334.0, (2S,3R)-N-(4-(2,6-dimethoxyphenyl)-5-((R)-5,5-dimethyltetrahydrofuran-2-yl)-4H-1,2,4-triazol-3-yl)-3-(5-fluoropyrimidin-2-yl)butane-2-sulfonamide or (2S,3R)-N-(4-(2,6-dimethoxyphenyl)-5-((S)-5,5-dimethyltetrahydrofuran-2-yl)-4H-1,2,4-triazol-3-yl)-3-(5-fluoropyrimidin-2-yl)butane-2-sulfonamide] | 2.5 nM
10 | CCC(CC)n1c(NS(=O)(=O)[C@@H](C)[C@H](OC)c2ncc(Cl)cn2)nnc1[C@@H]1COCCO1 (single isomer, unassigned) [Example 335.0, (1R,2S)-1-(5-chloro-2-pyrimidinyl)-N-(5-((2R)-1,4-dioxan-2-yl)-4-(3-pentanyl)-4H-1,2,4-triazol-3-yl)-1-methoxy-2-propanesulfonamide or (1R,2S)-1-(5-chloro-2-pyrimidinyl)-N-(5-((2S)-1,4-dioxan-2-yl)-4-(3-pentanyl)-4H-1,2,4-triazol-3-yl)-1-methoxy-2-propanesulfonamide] | 38 nM
11 | CCC(CC)n1c(NS(=O)(=O)[C@@H](C)[C@H](OC)c2ncc(Cl)cn2)nnc1[C@@H]1COCCO1 (single isomer, unassigned) [Example 336.0, (1R,2S)-1-(5-chloro-2-pyrimidinyl)-N-(5-((2R)-1,4-dioxan-2-yl)-4-(3-pentanyl)-4H-1,2,4-triazol-3-yl)-1-methoxy-2-propanesulfonamide or (1R,2S)-1-(5-chloro-2-pyrimidinyl)-N-(5-((2S)-1,4-dioxan-2-yl)-4-(3-pentanyl)-4H-1,2,4-triazol-3-yl)-1-methoxy-2-propanesulfonamide] | 1400 nM
12 | CO[C@H](c1ncc(Cl)cn1)[C@H](C)S(=O)(=O)Nc1nnc([C@@H]2COCCO2)n1C(C1CC1)C1CC1 (single isomer, unassigned) [Example 337.0, (1R,2S)-1-(5-chloro-2-pyrimidinyl)-N-(4-(dicyclopropylmethyl)-5-((2R)-1,4-dioxan-2-yl)-4H-1,2,4-triazol-3-yl)-1-methoxy-2-propanesulfonamide or (1R,2S)-1-(5-chloro-2-pyrimidinyl)-N-(4-(dicyclopropylmethyl)-5-((2S)-1,4-dioxan-2-yl)-4H-1,2,4-triazol-3-yl)-1-methoxy-2-propanesulfonamide] | 6.9 nM
13 | CO[C@H](c1ncc(Cl)cn1)[C@H](C)S(=O)(=O)Nc1nnc([C@@H]2COCCO2)n1C(C1CC1)C1CC1 (single isomer, unassigned) [Example 338.0, (1R,2S)-1-(5-chloro-2-pyrimidinyl)-N-(4-(dicyclopropylmethyl)-5-((2R)-1,4-dioxan-2-yl)-4H-1,2,4-triazol-3-yl)-1-methoxy-2-propanesulfonamide or (1R,2S)-1-(5-chloro-2-pyrimidinyl)-N-(4-(dicyclopropylmethyl)-5-((2S)-1,4-dioxan-2-yl)-4H-1,2,4-triazol-3-yl)-1-methoxy-2-propanesulfonamide] | 110 nM
14 | COCC1(n2c(NS(=O)(=O)[C@@H](C)[C@H](OC)c3ncc(Cl)cn3)nnc2[C@H]2CCOC2)CC1 (single isomer, unassigned) [Example 339.0, (1R,2S)-1-(5-chloro-2-pyrimidinyl)-1-methoxy-N-(4-(1-(methoxymethyl)cyclopropyl)-5-((3R)-tetrahydro-3-furanyl)-4H-1,2,4-triazol-3-yl)-2-propanesulfonamide or (1R,2S)-1-(5-chloro-2-pyrimidinyl)-1-methoxy-N-(4-(1-(methoxymethyl)cyclopropyl)-5-((3S)-tetrahydro-3-furanyl)-4H-1,2,4-triazol-3-yl)-2-propanesulfonamide] | 1440 nM
15 | COCC1(n2c(NS(=O)(=O)[C@@H](C)[C@H](OC)c3ncc(Cl)cn3)nnc2[C@H]2CCOC2)CC1 (single isomer, unassigned) [Example 340.0, (1R,2S)-1-(5-chloro-2-pyrimidinyl)-1-methoxy-N-(4-(1-(methoxymethyl)cyclopropyl)-5-((3R)-tetrahydro-3-furanyl)-4H-1,2,4-triazol-3-yl)-2-propanesulfonamide or (1R,2S)-1-(5-chloro-2-pyrimidinyl)-1-methoxy-N-(4-(1-(methoxymethyl)cyclopropyl)-5-((3S)-tetrahydro-3-furanyl)-4H-1,2,4-triazol-3-yl)-2-propanesulfonamide] | 150 nM
16 | COCC1(n2c(NS(=O)(=O)[C@@H](C)[C@H](OC)c3ncc(Cl)cn3)nnc2[C@H]2COCCO2)CC1 (single isomer, unassigned) [Example 342.0, (1R,2S)-N-(5-((S)-1,4-dioxan-2-yl)-4-(1-(methoxymethyl)cyclopropyl)-4H-1,2,4-triazol-3-yl)-1-(5-chloropyrimidin-2-yl)-1-methoxypropane-2-sulfonamide or (1R,2S)-N-(5-((R)-1,4-dioxan-2-yl)-4-(1-(methoxymethyl)cyclopropyl)-4H-1,2,4-triazol-3-yl)-1-(5-chloropyrimidin-2-yl)-1-methoxypropane-2-sulfonamide] | 100 nM
